SMILES strings stand for the structures.

In test [1] the test system is myrosinase. As to the kind of experiment: Conversion of glucoraphanin to sulforaphane in Simulated Intestinal Fluid (Example 5). The test is classed as biochemical, broccoli. The following applies: 0.25 to 1.00 mmol/Liter ascorbic acid, 38° C., FIG. 4. The procedure:
Simulated Intestinal Fluid (SIF) powder, a commercially supplied concentrate closely approximating the human intestinal content in terms of composition, pH and ionic strength, was used. The experiment utilized a USP Dissolution Apparatus 2 (paddles), where into six dissolution vessels 500 mL of Simulated Intestinal Fluid was dispensed, along with 150 mg of freeze-dried broccoli sprout powder as a source of myrosinase. […] Aliquots were withdrawn every 15 minutes, and assayed for sulforaphane.

In test [2] the test system is mammary tumors. As to conditions: Sprague-Dawley rats; cited from earlier work.
The test system of test [3] is mammary epithelium. The following applies: oral administration, Sprague-Dawley rats; cited from earlier work.
Test [4] deals with myrosinase. As to the kind of experiment: Equimolar conversion of glucoraphanin to sulforaphane by myrosinase with ascorbic acid (Example 4). As to conditions: control sample, without ascorbic acid. The class given is biochemical, broccoli. Here is the method: A two-part experiment was conducted to further elucidate the role of ascorbic acid in modulating myrosinase activity. […] A control sample contained no ascorbic acid, and the enzymatic conversion proceeded unassisted by a co-factor. PART 1. […] PART 2. While keeping the amount of broccoli seed extract fixed at 250 mg, the concentration of ascorbic acid was varied from 0.4 mmol/Liter to 3.8 mmol/Liter.

With `O=C1O[C@H]([C@@H](O)CO)C(O)=C1O` [Ascorbic Acid, Ascorbic acid], in test [1], the “Yield of sulforaphane versus ascorbic acid concentration” value was “direct correlation between larger yield of sulforaphane and higher concentrations of ascorbic acid”.

Turning to `C[S+]([O-])CCCCN=C=S` (centres unmarked) [SFN, 1-isothiocyanato-4-methylsulfinylbutane], in test [2], the “Blocking the formation of mammary tumors” value is “effective”. Also, in test [3], the “Elevated immunostaining of the heme oxygenase-1 (HO-1) enzyme” value is 4 fold and the “Increase in NAD(P)H:quinine oxidoreductase (NQO1) enzymatic activity” value is 3 fold. Take `C[S+]([O-])CCCC/C(=N\OS(=O)(=O)O)S[C@@H]1O[C@H](CO)[C@@H](O)[C@H](O)[C@H]1O` (some centres unmarked) [glucoraphanin, 4-methylsulfinylbutyl glucosinolate]: the “Stoichiometry of conversion of glucoraphanin to sulforaphane” value in test [4] is “equimolar conversion”.

These data come from US20150174213A1, “COMPOSITIONS COMPRISING SULFORAPHANE OR A SULFORAPHANE PRECURSOR AND URSOLIC ACID” (Nutramax Laboratories, Inc., priority 2012, published 2015).
